From US12617779B2, “Self degradation-type CDK9 inhibitor prodrug and liposome encapsulating same” (Sumitomo Pharma Co., Ltd., priority 2021, dated 2026)

Tests used:
[1] = Pharmacokinetic test, intravenous solution and liposome formulations in mice (Experimental Example 6); format: in vivo; conditions: female BALB/c mice
Outline: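 Solution or liposome formulation (ammonium sulfate-loaded HSPC/cholesterol/PEG-lipid liposomes, outer buffer 10 mM tartrate/10% sucrose pH 4) given IV to 7-week-old female BALB/c mice. Jugular blood sampled without anesthesia up to 24 h (solution) or 72 h (liposome); test compound and Alvocidib in plasma measured by LC-MS/MS.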

[2] = Evaluation of conversion rate to active form in buffer solution (Experimental Example 1); format: physicochemical; conditions: for Production rate of Alvocidib / Residual rate: 37° C., 25 umol/L in buffer solution
Outline: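 Conversion to Alvocidib and loss of parent were followed by HPLC over 3 h (samples at 0, 0.5, 1, 2, 3 h). Incubations used 25 umol/L compound at 37 °C across pH 5.0–7.4, in 50 mM citrate below pH 6.0 and 50 mM phosphate from pH 6.0 upward.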

CN1CC[C@H](c2c(OC(=O)N(C)C[C@H]3CCCCN3)cc(O)c3c(=O)cc(-c4ccccc4Cl)oc23)[C@H](O)C1 [Example 4, 2-(2-chlorophenyl)-5-hydroxy-8-[(3S,4R)-3-hydroxy-1-methylpiperidin-4-yl]-4-oxo-4H-1-benzopyran-7-yl methyl{[(2R)-piperidin-2-yl]methyl}carbamate]
Blood retention of liposome formulation compared with the corresponding solution formulation [1]: higher blood retention | Production rate of Alvocidib ([2]; pH5.0, 0 hr): 0.5% | Residual rate ([2]; pH5.0, 0 hr): 99.3% | Stability in buffer solution at pH 5 ([2]; pH 5, 37° C., up to 2 or 3 hours): stable | Production rate of Alvocidib ([2]; pH5.0, 0.5 hr): 0.8% | Residual rate ([2]; pH5.0, 0.5 hr): 98.5% | Production rate of Alvocidib ([2]; pH5.0, 1 hr): 1.1% | Residual rate ([2]; pH5.0, 1 hr): 98.0% | Production rate of Alvocidib ([2]; pH5.0, 2 hr): 1.7% | Residual rate ([2]; pH5.0, 2 hr): 96.8% | Production rate of Alvocidib ([2]; pH5.0, 3 hr): 2.3% | Residual rate ([2]; pH5.0, 3 hr): 95.6% | Production rate of Alvocidib ([2]; pH5.5, 0 hr): 0.4% | Residual rate ([2]; pH5.5, 0 hr): 99.2% | Production rate of Alvocidib ([2]; pH5.5, 0.5 hr): 1.5% | Residual rate ([2]; pH5.5, 0.5 hr): 97.1% | Production rate of Alvocidib ([2]; pH5.5, 1 hr): 2.2% | Residual rate ([2]; pH5.5, 1 hr): 95.5% | Production rate of Alvocidib ([2]; pH5.5, 2 hr): 4.0% | Residual rate ([2]; pH5.5, 2 hr): 91.4% | Production rate of Alvocidib ([2]; pH5.5, 3 hr): 5.5% | Residual rate ([2]; pH5.5, 3 hr): 87.9% | Production rate of Alvocidib ([2]; pH6.0, 0 hr): 0.4% | Residual rate ([2]; pH6.0, 0 hr): 99.3% | Production rate of Alvocidib ([2]; pH6.0, 0.5 hr): 3.7% | Residual rate ([2]; pH6.0, 0.5 hr): 91.9% | Production rate of Alvocidib ([2]; pH6.0, 1 hr): 6.4% | Residual rate ([2]; pH6.0, 1 hr): 85.6% | Production rate of Alvocidib ([2]; pH6.0, 2 hr): 12.0% | Residual rate ([2]; pH6.0, 2 hr): 72.4% | Production rate of Alvocidib ([2]; pH6.0, 3 hr): 16.6% | Residual rate ([2]; pH6.0, 3 hr): 61.7% | Production rate of Alvocidib ([2]; pH6.5, 0 hr): 0.5% | Residual rate ([2]; pH6.5, 0 hr): 99.3% | Production rate of Alvocidib ([2]; pH6.5, 0.5 hr): 9.0% | Residual rate ([2]; pH6.5, 0.5 hr): 79.5% | Production rate of Alvocidib ([2]; pH6.5, 1 hr): 15.1% | Residual rate ([2]; pH6.5, 1 hr): 65.1% | Production rate of Alvocidib ([2]; pH6.5, 2 hr): 26.1% | Residual rate ([2]; pH6.5, 2 hr): 39.7% | Production rate of Alvocidib ([2]; pH6.5, 3 hr): 32.7% | Residual rate ([2]; pH6.5, 3 hr): 24.9% | Production rate of Alvocidib ([2]; pH7.0, 0 hr): 0.6% | Residual rate ([2]; pH7.0, 0 hr): 98.8% | Production rate of Alvocidib ([2]; pH7.0, 0.5 hr): 21.3% | Residual rate ([2]; pH7.0, 0.5 hr): 51.3% | Production rate of Alvocidib ([2]; pH7.0, 1 hr): 31.6% | Residual rate ([2]; pH7.0, 1 hr): 27.7% | Production rate of Alvocidib ([2]; pH7.0, 2 hr): 41.1% | Residual rate ([2]; pH7.0, 2 hr): 0.0% | Production rate of Alvocidib ([2]; pH7.0, 3 hr): 43.3% | Residual rate ([2]; pH7.0, 3 hr): 0.0% | Production rate of Alvocidib ([2]; pH7.4, 0 hr): 0.8% | Residual rate ([2]; pH7.4, 0 hr): 98.4% | Conversion to Alvocidib at pH 7.4 ([2]; pH 7.4, 37° C., up to 3 hours): rapidly converted to Alvocidib | Production rate of Alvocidib ([2]; pH7.4, 0.5 hr): 34.8% | Residual rate ([2]; pH7.4, 0.5 hr): 21.5% | Production rate of Alvocidib ([2]; pH7.4, 1 hr): 42.0% | Residual rate ([2]; pH7.4, 1 hr): 0.0% | Production rate of Alvocidib ([2]; pH7.4, 2 hr): 44.6% | Residual rate ([2]; pH7.4, 2 hr): 0.0% | Production rate of Alvocidib ([2]; pH7.4, 3 hr): 44.6% | Residual rate ([2]; pH7.4, 3 hr): 0.0%
